According to patent publication US20010044445A1, “AZOLE INHIBITORS OF CYTOKINE PRODUCTION” (priority 1999, published 2001):

Columns and labels:
[1] = test system: Human peripheral blood mononuclear cells; experiment: Human Concanavalin-A Proliferation Assay (Con HU Assay); assay type: cell-based; settings: Homo sapiens, PBMC, concanavalin-A stimulated human PBMC; for inhibition at 10 µM / inhibition at 1 µM / inhibition at 100 µM: 72 h, 3 days, read-out: % Inhibition of proliferation (at concentrations of 1,10, or 100 μm); for inhibition at 10 µM: concentration 10 μm (in parentheses in the cell); for IC50: tritiated thymidine; for inhibition at 1 µM: concentration 1 μm (in parentheses in the cell); for inhibition at 100 µM: concentration 100 μm (in parentheses in the cell)
In short: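 Histopaque-isolated human PBMC (50,000/well) were pre-incubated 15 min with compounds, then stimulated with concanavalin-A at 2.5 μg/ml final for 3 days at 37 °C, 5% CO2. Proliferation measured by 6 h pulse with 0.5 μCi/well [3H]thymidine and beta counting.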

melting point | Compound | inhibition at 10 µM [1] | IC50 [1] | inhibition at 1 µM [1] | inhibition at 100 µM [1]
179 to 181 °C | COc1ccc(Br)c(C(=O)Nc2ccc(-n3nc(C(F)(F)F)cc3C(F)(F)F)cc2)c1 [Example 219, N-[4-[3,5-bis(trifluoromethyl)-1H-pyrazol-1-yl]phenyl]-2-bromo-5-methoxybenzamide] | 100% | 214 nM |  | 
200 to 202 °C | Cc1ccc(C(=O)Nc2ccc(-n3nc(C(F)(F)F)cc3C(F)(F)F)cc2)s1 [Example 44, N-[4-[3,5-bis(trifluoromethyl)-1H-pyrazol-1-yl]phenyl]-5-methyl-2-thiophenecarboxamide] |  |  | 29% | 
167 to 170 °C | O=C(Nc1ccc(-n2nc(C(F)(F)F)nc2Cl)cc1)c1ccncc1F [Example 336, N-(4-(5-chloro-3-(trifluoromethyl)-1H-1,2,4-triazol-1-yl)phenyl)-3-fluoroisonicotinamide] |  | 1830 nM |  | 
118 to 119 °C | O=C(Nc1ccc(-n2nc(C(F)(F)F)cc2C(F)(F)F)cc1)c1nc(Cl)ccc1Cl [Example 167, N-[4-[3,5-bis(trifluoromethyl)-1H-pyrazol-1-yl]phenyl]-3,6-dichloro-2-pyridinecarboxamide] |  | 279 nM |  | 100%
135 to 136 °C | O=C(Nc1ccc(-n2nc(C(F)(F)F)cc2OC(F)F)cc1)c1ccncc1F [Example 327, N-(4-(5-(difluoromethoxy)-3-(trifluoromethyl)-1H-pyrazol-1-yl)phenyl)-3-fluoroisonicotinamide] |  | 82 nM |  | 
113 to 116 °C | O=C(Nc1ccc(-n2nc(C(F)(F)F)cc2C(F)(F)F)nc1)c1cc(F)c(F)cc1Cl [Example 262, N-[2-[3,5-bis(trifluoromethyl)-1H-pyrazol-1-yl]-5-pyridinyl]-2-chloro-4,5-difluorobenzamide] | 100% | 419 nM |  | 
145 to 147 °C | COC1CCCC(C(=O)Nc2ccc(-n3nc(C(F)(F)F)cc3C(F)(F)F)cc2)C1 (stereo not shown) [Example 11, N-[4-[3,5-bis(trifluoromethyl)-1H-pyrazol-1-yl]phenyl]-3-methoxycyclohexanecarboxamide] | 100% | 376 nM |  | 
187 to 188 °C | O=C(Nc1c(F)cccc1F)c1ccc(-n2nc(C(F)(F)F)cc2C(F)(F)F)cc1 [Example 191, 4-[3,5-Bis(trifluoromethyl)-1H-pyrazol-1-yl]-N-(2,6-difluorophenyl)benzamide] |  | 116 nM | 99% | 
161 to 162 °C | N#Cc1cc(C(F)(F)F)nn1-c1ccc(NC(=O)c2ccncc2F)cc1 [Example 304, N-(4-(5-cyano-3-(trifluoromethyl)-1H-pyrazol-1-yl)phenyl)-3-fluoroisonicotinamide] |  | 266 nM |  | 
185 to 188 °C | O=C(Nc1ccc(-n2nc(C(F)(F)F)cc2C(F)(F)F)cc1)c1c(F)cc(Cl)cc1Cl [Example 232, N-[4-[3,5-bis(trifluoromethyl)-1H-pyrazol-1-yl]phenyl]-2,4-dichloro-6-fluorobenzamide] | 99% | 172 nM |  | 
173 to 175 °C | O=C(Nc1ccc(-n2nc(C(F)(F)F)cc2C(F)(F)F)cc1)c1ccccc1O [Example 103, N-[4-[3,5-bis(trifluoromethyl)-1H-pyrazol-1-yl]phenyl]-2-hydroxybenzamide] |  |  | 14% | 
235 to 236 °C | Cc1c(NC(=O)Nc2ccc(-n3nc(C(F)(F)F)cc3C(F)(F)F)cc2)cccc1[N+](=O)[O-] [Example 40, N-[4-[3,5-bis(trifluoromethyl)-1H-pyrazol-1-yl]phenyl]-N′-(2-methyl-3-nitrophenyl)urea] |  |  | 36% | 
213 to 214 °C | O=C(Nc1ccc(-n2nc(C(F)(F)F)cc2C(F)(F)F)cc1)c1cnns1 [Example 244, N-[4-[3,5-bis(trifluoromethyl)-1H-pyrazol-1-yl]phenyl]-1,2,3-thiadiazole-5-carboxamide] | 94% | 523 nM |  | 
253 to 255 °C | O=C(Nc1ccc(-n2nc(C(F)(F)F)cc2C(F)(F)F)cc1)c1cc2cc(F)ccc2[nH]1 [Example 20, N-[4-[3,5-bis(trifluoromethyl)-1H-pyrazol-1-yl]phenyl]-5-fluoro-1H-indole-2-carboxamide] |  |  | 10% | 
113 to 116 °C | O=C(Nc1ccc(-n2nc(C(F)(F)F)cc2C(F)(F)F)cc1)c1cccc(Cl)c1F [Example 214, N-[4-[3,5-bis(trifluoromethyl)-1H-pyrazol-1-yl]phenyl]-3-chloro-2-fluorobenzamide] | 100% | 68 nM |  | 
188 to 190 °C | O=C(Nc1ccc(-n2nc(C(F)(F)F)cc2C(F)(F)F)cc1)c1ccccc1F [Example 114, N-[4-[3,5-bis(trifluoromethyl)-1H-pyrazol-1-yl]phenyl]-2-fluorobenzamide] |  | 84 nM |  | 98%
192 to 194 °C | O=C(Nc1ccc(-n2nc(C(F)(F)F)cc2C(F)(F)F)cc1)c1ccc(Cl)nc1 [Example 249, N-[4-[3,5-bis(trifluoromethyl)-1H-pyrazol-1-yl]phenyl]-6-chloro-3-pyridinecarboxamide] | 100% | 182 nM |  | 
114 to 115 °C | O=C(Nc1ccc(-n2nc(C(F)(F)F)cc2C(F)(F)F)cc1-n1nc(C(F)(F)F)cc1C(F)(F)F)c1ccc(F)cc1F [Example 273, N-[2,4-bis[3,5-bis(trifluoromethyl)-1H-pyrazol-1-yl]phenyl]-2,4-difluorobenzamide] |  |  | 12% | 
122 to 124 °C | O=C(Cc1ccc(Cl)cc1)Nc1ccc(-n2nc(C(F)(F)F)cc2C(F)(F)F)cc1 [Example 169, N-[4-[3,5-bis(trifluoromethyl)-1H-pyrazol-1-yl]phenyl]-4-chlorobenzeneacetamide] |  |  | 2% | 
51 to 53 °C | Cc1nnsc1C(=O)Nc1ccc(-n2nc(C(F)(F)F)cc2C)cc1 [Example 282, 4-methyl-N-[4-[5-methyl-3-(trifluoromethyl)-1H-pyrazol-1-yl]phenyl]-1,2,3-thiadiazole-5-carboxamide] |  | 248 nM |  | 100%
221 to 222 °C | N#Cc1cc(C(F)(F)F)nn1-c1ccc(NC(=O)c2ccncc2Cl)cc1 [Example 351, 3-chloro-N-(4-(5-cyano-3-(trifluoromethyl)-1H-pyrazol-1-yl)phenyl)isonicotinamide] |  | 309 nM |  | 
221 to 223 °C | O=C(Nc1ccc(-n2nc(C(F)(F)F)cc2C(F)(F)F)cc1)c1cccc(O)c1 [Example 104, N-[4-[3,5-bis(trifluoromethyl)-1H-pyrazol-1-yl]phenyl]-3-hydroxybenzamide] |  | 394 nM |  | 99%
182 to 184 °C | O=C(Nc1ccc(-n2nc(C(F)(F)F)cc2C(F)(F)F)cc1)c1ccc(Cl)s1 [Example 253, N-[4-[3,5-bis(trifluoromethyl)-1H-pyrazol-1-yl]phenyl]-5-chloro-2-thiophenecarboxamide] | 94% | 447 nM |  | 
180 to 181 °C | CN(C)c1cccc(C(=O)Nc2ccc(-n3nc(C(F)(F)F)cc3C(F)(F)F)cc2)c1 [Example 88, N-[4-[3,5-bis(trifluoromethyl)-1H-pyrazol-1-yl]phenyl]-3-(dimethylamino)benzamide] |  |  | 29% | 
203 to 205 °C | N#Cc1ccccc1NC(=O)c1ccc(-n2nc(C(F)(F)F)cc2C(F)(F)F)cc1 [Example 188, 4-[3,5-Bis(trifluoromethyl)-1H-pyrazol-1-yl]-N-(2-cyanophenyl)benzamide] | 87% | 485 nM |  | 
114 to 116 °C | COc1cccc(O)c1C(=O)Nc1ccc(-n2nc(C(F)(F)F)cc2C(F)(F)F)cc1 [Example 182, N-[4-[3,5-bis(trifluoromethyl)-1H-pyrazol-1-yl]phenyl]-2-hydroxy-6-methoxybenzamide] | 83% | 4670 nM |  | 
215 to 216 °C | O=C(Nc1ccc(-n2nc(C(F)(F)F)cc2C(F)(F)F)cc1)c1cc(Cl)nc(Cl)c1 [Example 269, N-[4-[3,5-bis(trifluoromethyl)-1H-pyrazol-1-yl]phenyl]-2,6-dichloro-4-pyridinecarboxamide] | 99% | 392 nM |  | 
122 to 124 °C | O=C(Nc1ccc(-n2nc(C(F)(F)F)cc2C(F)(F)F)cc1)c1ccc(F)c(F)c1F [Example 226, N-[4-[3,5-bis(trifluoromethyl)-1H-pyrazol-1-yl]phenyl]-2,3,4-trifluorobenzamide] | 100% | 43 nM |  | 
81 to 82 °C | FC(F)(F)c1cc(C(F)(F)F)n(-c2ccc(/C=C/c3ccccc3Cl)cc2)n1 [Example 154, (E)-1-[4-[2-(2-chlorophenyl)ethenyl]phenyl]-3,5-bis(trifluoromethyl)-1H-pyrazole] | 52% | 3820 nM |  | 
203 to 204 °C | Nc1cccc(C(=O)Nc2ccc(-n3nc(C(F)(F)F)cc3C(F)(F)F)cc2)c1 [Example 58, 3-Amino-N-[4-[3,5-bis(trifluoromethyl)-1H-pyrazol-1-yl]phenyl]benzamide] | 97% | 484 nM |  | 
